Results taken from patent US9580513B2, “VHZ for diagnosis and treatment of cancers” (AGENCY FOR SCIENCE, TECHNOLOGY AND RESEARCH (A*STAR), priority 2008, dated 2017).

T1: VHZ-GST (Homo sapiens, UniProt Q9BVJ7)
T1 construct: made in house
T1 sequence (Q9BVJ7 1-150): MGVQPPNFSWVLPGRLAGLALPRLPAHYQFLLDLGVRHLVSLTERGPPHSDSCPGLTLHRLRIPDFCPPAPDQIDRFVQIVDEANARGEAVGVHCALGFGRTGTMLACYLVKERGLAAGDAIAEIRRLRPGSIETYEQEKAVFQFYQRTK


What was measured:
[1] = target: T1, VHZ-GST; assay: Tyrosine phosphatase assay (ENZCHEK kit, fluorogenic substrate); assay type: biochemical; details: 10 μM sodium orthovanadate added to the reaction; 0.675 picomoles VHZ-GST
Method: FIG. 3A. We test each protein (0.675 picomoles) for its PTPase activity.
The ENZCHEK™ kit (Invitrogen, R22065) is used. As per the manufacturer's protocol, the fluorogenic substrate is reconstituted in the assay wells with buffer; the desired potential PTPases (0.675 picomole for each protein: VHZ-GST, VHZ-GST+Phosphatase inhibitor, VHZ(C95S)-GST, and control GST) are added to the wells and incubated 30 min or 90 min respectively. The fluorescence is then quantified using a Gemini XPS microplate spectrofluorometer (Molecular Devices). Fluorescence is measured at 10 minute intervals at the excitation and emission wavelengths of 358 and 452 nm, respectively. The phosphatase inhibitor sodium orthovanadate (10 μM) is used in the assay as a negative control.
The PTPase activities of VHZ-GST, indicated by increasing blue fluorescence (excitation/emission maxima ˜358/452 nm), are abolished either by mutation of Cys 95 to Ser or by adding phosphatase inhibitor (sodium orthovanadate) into the assay (FIG. 3A, Panel A).

[2] = test system: HCT116 colon cancer cells that express VHZ; assay: Formation of tumours by HCT116 colon cancer cells injected via the tail vein of nude mice; assay type: in vivo; details: 1×10^6 HCT116 cells via tail vein on day 1; chimeric mAb into tail vein from day 3, then two administrations weekly; compared with PBS (untreated)
Text: FIG. 15B. Either PBS (untreated) or chimeric mAb (treated) is administrated into tail vein starting the first treatment on day 3; followed by two administrations weekly. Experiment periods: Top two animals starting 11 Feb.-2 Apr. 2009 bottom two animals starting 11 Feb.-13 Apr. 2009.
All animal studies have been approved by the Institutional Review Board of the IMCB. We follow strictly rules and policies of the Animal Facility Center of The Agency for Science, Technology and Research (A* STAR), Singapore. Nine-week old nude mice (Jackson Labs, USA) are used.
By western blot we confirm that HCT116 colon cancer cell line is VHZ positive comparing with MDCK cell line. 1×10^6 HCT116 cancer cells were injected into the circulation of nude mice via the tail vein on day 1.
Either PBS (untreated) or chimeric mAb (treated) was administrated into tail vein starting the first treatment on day 3; followed by two administrations weekly. Experiment periods: Top two animals starting 11 Feb.-2 Apr. 2009 bottom two animals starting 11 Feb.-13 Apr. 2009.

| Molecule | PTPase activity of VHZ [1] | formation of tumours by HCT116 colon cancer cells [2] |
| --- | --- | --- |
| [Na+].[Na+].[Na+].[O]=[V]([O-])([O-])[O-] [sodium orthovanadate] | completely abolished | – |
| VHZ human/mouse Chimeric mAb (Clone #209): mouse variable regions of hybridoma clone #209 (SEQ ID NO: 4 and 5) joined with human IgG1 constant region (antibody, listed as Mus musculus, V domains shown, human IgG1 constant regions lacking entries) VH: LVDMDSRLNLVFLVLILKGVQCDVQLVESGGGLVQPGGSRKLSCAASGFTFSSFGMHWVRQAPEKGLEWVAYISSGSSTIYYADTVKGRFTISRDNPKNTLFLQMTSLRSEDTAMYYCARWQTARATRGYAMDYWGQGTSVTVSS VL: VMTQSHKFMSTSVGDRVSITCKASQDVNTAVAWYQQKPGQSPKLLIYSASYRFTGVPDLFTGSGSGTDFTFTINSVQAEDLAVYYCQQHYSSPWTFGGGTKLEIKRADAAPTVSIFHHPVSLG | – | effectively inhibits the formation of tumours |
